Among the test systems are 786-0; A498; CCRF-CEM; HCC 2998; HCT-15; HL-60; IGROV-1; K562; LOX IMVI; M14; MDA-MB-435; NCI-H226; OVCAR-8; RXF 393; SF-539; SK-OV-3; SN12C; SW-620; HOP-62.
Common to all, as to assay: NCI-60 cell line screen, 48 h

Each structure is given as a SMILES string.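 Results reflect a 48-hour exposure of cells in 96-well plates to compound at five concentrations. At the GI50, growth is halved.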 Calls of active or inactive are those of the source. No stated cut-off is given here; in the data, active = GI50 up to about 1.1 µM and inactive = higher.

With `COC(=O)CCC(=O)NC1=C(NCc2ccccc2)C(=O)c2ccccc2C1=O`, the GI50 in the assay on 786-0 was 38.5 µM (inactive); in the assay on A498, 67.9 µM (inactive); in the assay with CCRF-CEM, 35.8 µM (inactive); with HCC 2998, 37.2 µM (inactive); in the assay on HCT-15, 17 µM; in the assay on HL-60, 21.8 µM (inactive). The GI50 is 17.7 µM (inactive) with IGROV-1; 33.9 µM (inactive) in the assay on K562; 21.8 µM (inactive) in the assay with LOX IMVI; 18.7 µM (inactive) in the assay with M14; 18.9 µM (inactive) in the assay on MDA-MB-435; 85.1 µM (inactive) in the assay on NCI-H226. For the same molecule, the GI50 in the assay with OVCAR-8 is 27.7 µM (inactive); with RXF 393, 34.7 µM (inactive); with SF-539 it was 20.1 µM (inactive); in the assay with SK-OV-3, 57.3 µM (inactive); with SN12C, 25.5 µM (inactive); in the assay with SW-620, 19.9 µM (inactive).
Take `CN(C)CCNC(=O)c1cccc2nc3c(C(=O)NCCN(C)C)cccc3nc12`: the GI50 in the assay with 786-0 was 0.393 µM (active); with A498, 1.85 µM (inactive); in the assay on CCRF-CEM, 0.59 µM (active); in the assay on HCC 2998 it was 1.15 µM (inactive); with HCT-15, 2.98 µM; with HL-60, 0.713 µM (active). Also, the GI50 with HOP-62 is 1.31 µM (inactive); in the assay on IGROV-1 it was 1.78 µM (inactive); in the assay with K562, 0.621 µM (active); in the assay on LOX IMVI, 0.366 µM (active); with M14, 1.51 µM (inactive); in the assay with MDA-MB-435, 1.21 µM (inactive). In addition, the GI50 is 1.46 µM (inactive) in the assay on NCI-H226; 0.421 µM (active) in the assay with OVCAR-8; 1.44 µM (inactive) with RXF 393; 1.92 µM (inactive) in the assay on SF-539; 0.918 µM (active) in the assay with SN12C; 0.462 µM (active) with SW-620.
`O=C(NCCO)c1c(O)c2ccccc2[nH]c1=O`: the GI50 with 786-0 is > 100 µM (inactive); in the assay on A498, > 100 µM (inactive); in the assay on CCRF-CEM, > 100 µM (inactive); in the assay on HCC 2998, > 100 µM (inactive); in the assay on HCT-15 it was 62.2 µM; in the assay on HL-60, > 100 µM (inactive). The GI50 with HOP-62, in the assay on IGROV-1, with K562, with LOX IMVI, with MDA-MB-435 and in the assay with NCI-H226 was > 100 µM (inactive) throughout. For the same molecule, the GI50 in the assay with OVCAR-8, in the assay on RXF 393, in the assay on SF-539, with SN12C and with SW-620 was > 100 µM (inactive) throughout.
As to `C=C1CCCCCCCCCCC1[S+]([O-])c1ccccc1` (configuration not stated), the GI50 was 18.8 µM (inactive) in the assay with 786-0; 38.6 µM (inactive) in the assay on A498; > 100 µM (inactive) in the assay with HCC 2998; 41.7 µM with HCT-15; 19.1 µM (inactive) in the assay on HL-60; 60.8 µM (inactive) in the assay with HOP-62. For the same molecule, the GI50 in the assay on IGROV-1 is 16 µM (inactive); in the assay with K562, 33.8 µM (inactive); with LOX IMVI, 28.8 µM (inactive); in the assay with M14 it was 27.7 µM (inactive); with MDA-MB-435 it was 23.9 µM (inactive); in the assay on NCI-H226, 44.7 µM (inactive). In addition, the GI50 was 26.5 µM (inactive) in the assay on RXF 393, 21 µM (inactive) with SF-539, 38 µM (inactive) in the assay with SK-OV-3 and 23.2 µM (inactive) in the assay with SN12C.
Consider `CCCCCCCCCCOCCOCCOCCOCCCCC(O)CCCCCCCC1=C[C@H](C)OC1=O` (some centres not stated), for which the GI50 in the assay with 786-0 was 18.6 µM (inactive); with A498, 13.6 µM (inactive); with CCRF-CEM, 2.79 µM (inactive); in the assay with HCC 2998 it was 13.2 µM (inactive); in the assay with HCT-15 it was 12.7 µM; with HL-60, 0.863 µM (active). Moreover, the GI50 in the assay on IGROV-1 is 14.4 µM (inactive); in the assay on K562, 4.02 µM (inactive); with LOX IMVI, 4.98 µM (inactive); in the assay on M14 it was 14.3 µM (inactive); in the assay with MDA-MB-435, 12 µM (inactive); in the assay with NCI-H226, 10.9 µM (inactive). Besides, the GI50 with OVCAR-8 is 13.4 µM (inactive); in the assay on RXF 393, 10.9 µM (inactive); in the assay on SF-539, 12.1 µM (inactive); in the assay on SK-OV-3, 16.5 µM (inactive); in the assay with SN12C it was 13.3 µM (inactive); in the assay with SW-620, 12.1 µM (inactive).
